From patent publication US20240226332A9, “GENE THERAPY FOR TREM2-ASSOCIATED DISEASES AND DISORDERS” (Eli Lilly and Company, priority 2022, published 2024)

Key:
[1] = tested on: CSF1R-inhibition mouse model (WT C57BL/6 mice fed PLX-chow); assay: In vivo efficacy of TREM2 rAAV in CSF1R-inhibition (PLX) mouse model for CRL
Protocol: The rAAV was injected at a dose of either 1.8×10^10 vg (4.49×10^10 vg/g brain) or 1.8×10^11 vg (4.49×10^11 vg/g brain), respectively. Vector particles per g brain weight was based on an adult mouse brain weight of 400 mg. At 8 weeks of age (i.e., 4 weeks post-ICV injection), 1 excipient-treated group and both dose-treated groups were fed with PLX-containing mouse chow. Mice were fed with PLX-chow at 185 mg/kg for 1 week and then sacrificed at 9 weeks of age (i.e., 5 weeks post-ICV injection).
Biodistribution was determined by measuring vg presence using ddPCR (with >50 vg/1 μg gDNA defined as positive).

[2] = tested on: iPSC-derived microglia; assay: Pharmacological CSF1R-inhibition (PLX3397) cell viability assay in human iPSC-derived microglia; assay type: cell-based; details: 150 nM or 200 nM PLX3397 in 0.1% DMSO, 8 hr, colorimetric viability kit
Protocol: Methods: The iPSC-derived microglia as described in Example 4 either were treated with excipient (negative control) or were transduced with a rAAV vector having a TREM2 transgene (SEQ ID NO:26) encapsidated in AAV6TM capsid protein (SEQ ID NO:19) at a MOI of 2.0×10^3 vg/cell. 7 days post-transduction, 150 nM or 200 nM of PLX3397 in 0.1% DMSO was added to the cell culture media and incubated for additional 8 hr at 37° C. and 5% CO2. After this period of incubation, cells were assayed for viability using a colorimetric kit (Abcam).

Compound: FC(F)(F)c1ccc(CNc2ccc(Cc3c[nH]c4ncc(Cl)cc34)cn2)cn1 [PLX]
- number of IBA1+ microglia in brain ([1]; PLX-chow 185 mg/kg for 1 week, either dose of rAAV+PLX compared to excipient+PLX): almost complete depletion of microglia throughout the brain
- expression of homeostatic microglia genes (P2RY12, HEXB) ([1]; PLX-chow 185 mg/kg for 1 week, rAAV+PLX): decreased expression of genes associated with homeostatic microglia
- CSF1R expression (mRNA; protein) ([1]; PLX-chow 185 mg/kg for 1 week, rAAV+PLX (both doses) compared to excipient+PLX): apparent at both the mRNA and protein level
- expression of disease associated microglia (DAM) genes (CCL12, CD48, CD68, LYZ1, PTPRC) ([1]; excipient+PLX, rAAV+PLX compared to excipient-only): significant decrease in expression
- cell death (cytotoxicity of PLX treatment) [2]: about 80%
